What was measured:
intestinal permeability = conditions: rodent model with gradual deterioration of insulin sensitivity and eventual onset of diabetes; oral gavage; change over time (FIG. 5)
Protocol: 100 μg of non-radioactive Cr-EDTA in aqueous solution was administered to C57BL/6 mice and Wistar rats by oral gavage. A urine sample from the animals was then collected 6-10 hours after administration.
The urine sample taken from the animal was incubated with strongly acidic cation exchange resin wherein the active group is nuclear sulfonic acid, e.g., 33% by volume slurry of DOWEX-50-H+® cation exchange resin equilibrated with distilled water at room temperature.
Naturally occurring background Cr ions in the urine were correspondingly bound to the resin. […] The samples were then centrifuged, with the supernatant containing the fraction of administered Cr-EDTA that crossed the intestinal barrier.
The supernatant was injected directly into a Gas Furnace Atomic Absorption Spectroscope (GFAAS) using a graphite tube. The GFAAS apparatus had been calibrated to yield the concentration of Cr in each sample.

[1] = aqueous solution about 2.5 mM; comprised of materials verified as being non-toxic by the FDA; cited from earlier work

ratio of Cr to creatinine in urine samples (intestinal permeability): measurable increase
Structure (SMILES): O=C(O)CN(CCN(CC(=O)O)CC(=O)O)CC(=O)O.[Cr] [Cr-EDTA, chromium EDTA complex]
toxicity [1]: non-toxic

From patent publication US20210140962A1, “COMPOUND AND METHOD OF MEASURING INTESTINAL PERMEABILITY AND LEAKY GUT” (priority 2017, published 2021)
